Calls of active or inactive are those of the source. No cut-off for these calls is given here.
How the values were obtained:
[1] = target: T1, Proteinase-activated receptor 1 (Homo sapiens, UniProt P25116); assay: Functional cellular assay (HEK cells) (F2R)
T1 sequence (P25116 whole entry): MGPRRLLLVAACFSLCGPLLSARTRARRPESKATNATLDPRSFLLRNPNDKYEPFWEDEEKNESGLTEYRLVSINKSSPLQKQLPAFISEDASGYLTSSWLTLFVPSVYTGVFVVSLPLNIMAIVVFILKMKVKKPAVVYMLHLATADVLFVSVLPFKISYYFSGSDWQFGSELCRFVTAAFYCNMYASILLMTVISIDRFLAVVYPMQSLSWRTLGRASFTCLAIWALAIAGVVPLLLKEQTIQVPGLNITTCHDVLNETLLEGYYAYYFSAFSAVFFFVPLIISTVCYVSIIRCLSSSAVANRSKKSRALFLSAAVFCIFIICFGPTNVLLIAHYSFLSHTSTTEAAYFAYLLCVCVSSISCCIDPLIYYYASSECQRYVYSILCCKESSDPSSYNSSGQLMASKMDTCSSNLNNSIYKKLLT

[2] = target: 5-hydroxytryptamine receptor 2B (Homo sapiens) (UniProt P41595); assay: 5-HT2B (h) Eurofins-Cerep Cellular and Nuclear Receptor Functional Assays; settings: Compound concentration 10.0 uM
5-hydroxytryptamine receptor 2B (Homo sapiens), sequence (P41595 whole entry): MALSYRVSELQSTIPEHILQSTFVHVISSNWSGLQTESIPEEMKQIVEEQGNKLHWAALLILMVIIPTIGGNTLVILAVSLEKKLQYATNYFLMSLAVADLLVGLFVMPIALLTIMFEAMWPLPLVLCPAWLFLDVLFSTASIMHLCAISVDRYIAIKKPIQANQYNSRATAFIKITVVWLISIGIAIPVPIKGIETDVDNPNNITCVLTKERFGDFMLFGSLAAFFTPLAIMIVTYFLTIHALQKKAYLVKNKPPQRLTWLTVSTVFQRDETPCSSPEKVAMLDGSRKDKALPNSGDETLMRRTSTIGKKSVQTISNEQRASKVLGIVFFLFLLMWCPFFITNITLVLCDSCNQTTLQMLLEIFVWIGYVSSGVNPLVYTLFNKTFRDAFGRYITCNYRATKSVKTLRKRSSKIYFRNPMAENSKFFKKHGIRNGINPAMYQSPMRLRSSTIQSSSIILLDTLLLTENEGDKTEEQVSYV

[3] = system: Tyrosine-protein kinase ABL1 (Homo sapiens), P00519 [F317I]; settings: Compound concentration 1000.0 nM
[4] = system: Tyrosine-protein kinase ABL1 (Homo sapiens), P00519 [M351T]; settings: Compound concentration 1000.0 nM
[5] = target: Activin receptor type-1-like (Homo sapiens) (UniProt P37023); settings: Compound concentration 1000.0 nM
[6] = target: Cytoplasmic tyrosine-protein kinase BMX (Homo sapiens) (UniProt P51813); settings: Compound concentration 1000.0 nM
Cytoplasmic tyrosine-protein kinase BMX (Homo sapiens), sequence (P51813 whole entry): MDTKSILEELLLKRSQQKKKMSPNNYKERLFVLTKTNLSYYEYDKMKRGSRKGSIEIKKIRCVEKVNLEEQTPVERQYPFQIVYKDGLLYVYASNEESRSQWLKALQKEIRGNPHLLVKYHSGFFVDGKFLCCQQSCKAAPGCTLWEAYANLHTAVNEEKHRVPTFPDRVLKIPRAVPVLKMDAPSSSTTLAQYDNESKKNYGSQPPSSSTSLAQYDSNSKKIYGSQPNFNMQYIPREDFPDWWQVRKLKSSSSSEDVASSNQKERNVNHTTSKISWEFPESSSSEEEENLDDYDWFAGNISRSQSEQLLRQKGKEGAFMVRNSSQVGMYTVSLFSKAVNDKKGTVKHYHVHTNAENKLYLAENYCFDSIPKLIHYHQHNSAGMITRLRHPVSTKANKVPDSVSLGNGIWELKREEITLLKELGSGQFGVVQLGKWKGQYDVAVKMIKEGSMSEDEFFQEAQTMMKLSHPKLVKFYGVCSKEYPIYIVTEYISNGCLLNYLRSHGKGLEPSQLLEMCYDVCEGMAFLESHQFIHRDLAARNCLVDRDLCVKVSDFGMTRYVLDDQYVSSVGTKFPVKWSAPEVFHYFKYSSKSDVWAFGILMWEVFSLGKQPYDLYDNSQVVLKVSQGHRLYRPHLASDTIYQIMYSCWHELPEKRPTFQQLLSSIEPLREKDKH

[7] = target: Calcium/calmodulin-dependent protein kinase type 1D (Homo sapiens) (UniProt Q8IU85); settings: Compound concentration 1000.0 nM
[8] = target: Cyclin-dependent kinase 13 (Homo sapiens) (UniProt Q14004); settings: Compound concentration 1000.0 nM
[9] = target: Cyclin-dependent kinase 2 (Homo sapiens) (UniProt P24941); settings: Compound concentration 1000.0 nM
[10] = target: Cyclin-dependent kinase 4 (Homo sapiens) (UniProt P11802); settings: Compound concentration 1000.0 nM
[11] = target: Macrophage colony-stimulating factor 1 receptor (Homo sapiens) (UniProt P07333); settings: Compound concentration 1000.0 nM
[12] = system: Epidermal growth factor receptor (Homo sapiens), P00533 [G719S]; settings: Compound concentration 1000.0 nM
[13] = system: Epidermal growth factor receptor (Homo sapiens), P00533 [L861Q]; settings: Compound concentration 1000.0 nM
[14] = target: Mitogen-activated protein kinase 3 (Homo sapiens) (UniProt P27361); settings: Compound concentration 1000.0 nM
[15] = target: Mitogen-activated protein kinase 1 (Homo sapiens) (UniProt P28482); settings: Compound concentration 1000.0 nM
[16] = target: Fibroblast growth factor receptor 4 (Homo sapiens) (UniProt P22455); settings: Compound concentration 1000.0 nM
Fibroblast growth factor receptor 4 (Homo sapiens), sequence (P22455 22-802 limits assumed): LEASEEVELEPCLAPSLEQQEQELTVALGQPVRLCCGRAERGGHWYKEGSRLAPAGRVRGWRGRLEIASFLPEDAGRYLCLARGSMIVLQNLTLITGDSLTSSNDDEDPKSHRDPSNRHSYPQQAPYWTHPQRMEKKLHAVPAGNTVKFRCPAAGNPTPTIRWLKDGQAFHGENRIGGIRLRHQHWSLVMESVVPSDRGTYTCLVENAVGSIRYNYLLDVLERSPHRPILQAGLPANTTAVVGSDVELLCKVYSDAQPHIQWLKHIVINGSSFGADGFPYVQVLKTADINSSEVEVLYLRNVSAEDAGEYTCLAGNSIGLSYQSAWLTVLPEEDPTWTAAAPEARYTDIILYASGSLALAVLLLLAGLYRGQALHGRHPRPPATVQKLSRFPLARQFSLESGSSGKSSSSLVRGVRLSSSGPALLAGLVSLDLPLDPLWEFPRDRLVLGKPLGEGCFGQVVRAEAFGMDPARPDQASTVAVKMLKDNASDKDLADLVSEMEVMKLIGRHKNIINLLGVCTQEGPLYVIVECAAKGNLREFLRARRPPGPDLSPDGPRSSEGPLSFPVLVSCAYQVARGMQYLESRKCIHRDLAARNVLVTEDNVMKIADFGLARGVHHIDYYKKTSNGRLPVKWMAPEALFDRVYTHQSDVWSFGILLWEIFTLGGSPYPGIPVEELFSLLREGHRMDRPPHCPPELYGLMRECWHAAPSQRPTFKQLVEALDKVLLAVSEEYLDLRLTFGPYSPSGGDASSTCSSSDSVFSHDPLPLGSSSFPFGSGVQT

[17] = target: Homeodomain-interacting protein kinase 3 (Homo sapiens) (UniProt Q9H422); settings: Compound concentration 1000.0 nM
[18] = target: Serine/threonine-protein kinase ICK (Homo sapiens) (UniProt Q9UPZ9); settings: Compound concentration 1000.0 nM
[19] = system: Mast/stem cell growth factor receptor Kit (Homo sapiens), P10721 [V559D,T670I]; settings: Compound concentration 1000.0 nM
[20] = target: Serine/threonine-protein kinase LATS2 (Homo sapiens) (UniProt Q9NRM7); settings: Compound concentration 1000.0 nM
[21] = target: LIM domain kinase 1 (Homo sapiens) (UniProt P53667); settings: Compound concentration 1000.0 nM
[22] = target: Mitogen-activated protein kinase kinase kinase 13 (Homo sapiens) (UniProt O43283); settings: Compound concentration 1000.0 nM
[23] = target: Mitogen-activated protein kinase kinase kinase 9 (Homo sapiens) (UniProt P80192); settings: Compound concentration 1000.0 nM
[24] = target: Serine/threonine-protein kinase MRCK beta (Homo sapiens) (UniProt Q9Y5S2); settings: Compound concentration 1000.0 nM
[25] = target: Serine/threonine-protein kinase PAK 2 (Homo sapiens) (UniProt Q13177); settings: Compound concentration 1000.0 nM
[26] = target: Phosphatidylinositol 4-phosphate 3-kinase C2 domain-containing subunit beta (Homo sapiens) (UniProt O00750); settings: Compound concentration 1000.0 nM
Phosphatidylinositol 4-phosphate 3-kinase C2 domain-containing subunit beta (Homo sapiens), sequence (O00750 whole entry, the tested form may be a part, canonical isoform): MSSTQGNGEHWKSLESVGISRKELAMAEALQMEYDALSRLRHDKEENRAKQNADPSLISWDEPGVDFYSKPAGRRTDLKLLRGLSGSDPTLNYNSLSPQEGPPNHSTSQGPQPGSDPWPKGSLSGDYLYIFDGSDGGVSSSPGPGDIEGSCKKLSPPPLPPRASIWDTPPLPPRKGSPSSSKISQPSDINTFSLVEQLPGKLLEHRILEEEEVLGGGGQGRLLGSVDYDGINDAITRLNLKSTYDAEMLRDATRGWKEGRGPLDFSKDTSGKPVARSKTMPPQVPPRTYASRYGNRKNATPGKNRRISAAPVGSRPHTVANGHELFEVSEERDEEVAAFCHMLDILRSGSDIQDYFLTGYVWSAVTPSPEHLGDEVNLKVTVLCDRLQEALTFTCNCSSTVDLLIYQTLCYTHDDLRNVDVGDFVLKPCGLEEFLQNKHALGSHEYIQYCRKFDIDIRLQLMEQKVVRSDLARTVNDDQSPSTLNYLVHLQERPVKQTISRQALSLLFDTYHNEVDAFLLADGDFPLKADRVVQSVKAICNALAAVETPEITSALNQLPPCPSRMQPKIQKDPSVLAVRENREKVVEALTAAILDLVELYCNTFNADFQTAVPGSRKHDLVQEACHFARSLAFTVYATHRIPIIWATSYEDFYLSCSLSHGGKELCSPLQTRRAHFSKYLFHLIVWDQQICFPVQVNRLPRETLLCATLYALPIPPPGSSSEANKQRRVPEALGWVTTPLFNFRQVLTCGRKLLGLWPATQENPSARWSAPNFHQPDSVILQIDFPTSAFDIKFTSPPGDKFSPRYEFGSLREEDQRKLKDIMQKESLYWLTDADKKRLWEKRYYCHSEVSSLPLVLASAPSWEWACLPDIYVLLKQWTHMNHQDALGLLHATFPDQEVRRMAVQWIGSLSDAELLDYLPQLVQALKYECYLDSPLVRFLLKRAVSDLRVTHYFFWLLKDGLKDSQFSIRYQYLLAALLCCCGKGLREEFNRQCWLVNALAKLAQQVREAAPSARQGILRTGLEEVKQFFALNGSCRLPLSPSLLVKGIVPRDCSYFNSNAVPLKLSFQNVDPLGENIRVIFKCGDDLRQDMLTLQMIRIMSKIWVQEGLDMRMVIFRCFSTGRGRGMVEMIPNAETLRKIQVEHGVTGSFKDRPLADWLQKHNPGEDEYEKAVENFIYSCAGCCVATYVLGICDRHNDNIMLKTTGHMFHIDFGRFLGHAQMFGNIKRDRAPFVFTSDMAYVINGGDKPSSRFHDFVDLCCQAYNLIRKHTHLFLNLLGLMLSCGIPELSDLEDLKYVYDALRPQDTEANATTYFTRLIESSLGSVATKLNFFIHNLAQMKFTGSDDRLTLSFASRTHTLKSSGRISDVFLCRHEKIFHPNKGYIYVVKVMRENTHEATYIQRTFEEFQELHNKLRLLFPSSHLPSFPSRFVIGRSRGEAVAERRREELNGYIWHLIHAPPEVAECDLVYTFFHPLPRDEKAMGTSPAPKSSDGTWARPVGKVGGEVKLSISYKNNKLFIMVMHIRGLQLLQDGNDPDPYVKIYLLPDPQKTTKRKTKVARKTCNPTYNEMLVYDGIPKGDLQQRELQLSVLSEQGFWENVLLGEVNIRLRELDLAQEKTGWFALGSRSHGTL

[27] = system: Phosphatidylinositol 4,5-bisphosphate 3-kinase catalytic subunit alpha isoform (Homo sapiens), P42336 [C420R]; settings: Compound concentration 1000.0 nM
[28] = system: Phosphatidylinositol 4,5-bisphosphate 3-kinase catalytic subunit alpha isoform (Homo sapiens), P42336 [I800L]; settings: Compound concentration 1000.0 nM
[29] = target: Protein kinase C delta type (Homo sapiens) (UniProt Q05655); settings: Compound concentration 1000.0 nM
[30] = target: Rho-associated protein kinase 1 (Homo sapiens) (UniProt Q13464); settings: Compound concentration 1000.0 nM
[31] = target: Ribosomal protein S6 kinase alpha-3 (Homo sapiens) (UniProt P51812); settings: Compound concentration 1000.0 nM
Ribosomal protein S6 kinase alpha-3 (Homo sapiens), sequence (P51812 whole entry): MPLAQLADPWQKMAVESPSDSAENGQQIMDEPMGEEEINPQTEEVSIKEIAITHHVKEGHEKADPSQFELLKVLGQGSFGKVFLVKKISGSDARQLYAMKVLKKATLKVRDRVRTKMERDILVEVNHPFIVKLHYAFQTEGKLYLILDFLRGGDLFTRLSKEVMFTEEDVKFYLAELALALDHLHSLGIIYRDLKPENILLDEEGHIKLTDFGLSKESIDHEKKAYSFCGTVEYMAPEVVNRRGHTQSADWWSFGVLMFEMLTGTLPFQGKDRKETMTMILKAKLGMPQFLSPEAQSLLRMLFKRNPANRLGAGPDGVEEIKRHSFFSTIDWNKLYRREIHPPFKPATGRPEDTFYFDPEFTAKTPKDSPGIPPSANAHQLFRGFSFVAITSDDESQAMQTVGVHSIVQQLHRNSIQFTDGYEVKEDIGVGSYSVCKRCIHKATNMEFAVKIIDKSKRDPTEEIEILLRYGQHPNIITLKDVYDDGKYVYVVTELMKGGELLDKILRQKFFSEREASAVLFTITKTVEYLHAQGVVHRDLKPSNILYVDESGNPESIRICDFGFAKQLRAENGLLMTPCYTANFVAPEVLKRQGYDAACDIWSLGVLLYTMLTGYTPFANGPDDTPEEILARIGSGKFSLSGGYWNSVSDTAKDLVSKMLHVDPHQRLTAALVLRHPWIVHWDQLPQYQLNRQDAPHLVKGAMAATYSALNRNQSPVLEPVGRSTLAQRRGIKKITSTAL

[32] = target: Ribosomal protein S6 kinase alpha-6 (Homo sapiens) (UniProt Q9UK32); settings: Compound concentration 1000.0 nM
[33] = target: SRSF protein kinase 3 (Homo sapiens) (UniProt Q9UPE1); settings: Compound concentration 1000.0 nM
[34] = target: Serine/threonine-protein kinase 16 (Homo sapiens) (UniProt O75716); settings: Compound concentration 1000.0 nM
[35] = target: Serine/threonine-protein kinase 36 (Homo sapiens) (UniProt Q9NRP7); settings: Compound concentration 1000.0 nM
[36] = target: Mitogen-activated protein kinase kinase kinase 7 (Homo sapiens) (UniProt O43318); settings: Compound concentration 1000.0 nM
Mitogen-activated protein kinase kinase kinase 7 (Homo sapiens), sequence (O43318 whole entry): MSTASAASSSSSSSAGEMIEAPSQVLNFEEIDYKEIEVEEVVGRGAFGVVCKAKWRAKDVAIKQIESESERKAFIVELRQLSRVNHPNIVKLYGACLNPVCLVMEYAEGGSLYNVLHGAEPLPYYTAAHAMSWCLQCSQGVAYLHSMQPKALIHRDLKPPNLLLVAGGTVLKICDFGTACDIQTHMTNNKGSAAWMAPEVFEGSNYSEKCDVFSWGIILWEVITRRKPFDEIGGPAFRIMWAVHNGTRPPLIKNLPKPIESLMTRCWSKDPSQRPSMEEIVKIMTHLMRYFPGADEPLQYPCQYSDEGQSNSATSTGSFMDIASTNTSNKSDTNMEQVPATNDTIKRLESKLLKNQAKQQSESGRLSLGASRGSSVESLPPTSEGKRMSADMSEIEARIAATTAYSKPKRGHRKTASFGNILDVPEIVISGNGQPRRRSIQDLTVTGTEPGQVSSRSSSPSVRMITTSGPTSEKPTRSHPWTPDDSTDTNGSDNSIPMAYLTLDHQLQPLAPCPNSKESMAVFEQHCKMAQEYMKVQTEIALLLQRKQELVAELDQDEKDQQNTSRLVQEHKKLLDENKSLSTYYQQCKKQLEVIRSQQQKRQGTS

[37] = target: TGF-beta receptor type-2 (Homo sapiens) (UniProt P37173); settings: Compound concentration 1000.0 nM
[38] = target: Serine/threonine-protein kinase 32C (Homo sapiens) (UniProt Q86UX6); settings: Compound concentration 1000.0 nM
[39] = target: 5-hydroxytryptamine receptor 1B (Homo sapiens) (UniProt P28222); settings: Compound concentration 10.0 uM

For `O=C(N1CCS(=O)(=O)CC1)N1C[C@H](c2ccc(OC(F)(F)F)cc2)C[C@H](c2nc(C3CC3)no2)C1` [BAY-386], the IC50 [1] was 0.01 µM (active), the % Inhibition of Control Agonist Response (Mean n=2) [2] was 7% and the % of Control Agonist Response (Mean n=2) [2] was 1.6%. The residual activity [3] was 80%, the residual activity [4] was 100% and the residual activity [5] was 100%. For the same compound, the residual activity [6] was 100%, the residual activity [7] was 91% and the residual activity [8] was 100%. It also gave a residual activity [9] of 100%, a residual activity [10] of 18% and a residual activity [11] of 100%. It also gave a residual activity [12] of 99%, a residual activity [13] of 68% and a residual activity [14] of 94%. For the same compound, the residual activity [15] was 95%, the residual activity [16] was 100% and the residual activity [17] was 100%. It also gave a residual activity [18] of 100%, a residual activity [19] of 100% and a residual activity [20] of 100%. The residual activity [21] was 100%, the residual activity [22] was 98% and the residual activity [23] was 100%. It also gave a residual activity [24] of 100%, a residual activity [25] of 90% and a residual activity [26] of 100%. For the same compound, the residual activity [27] was 100%, the residual activity [28] was 68% and the residual activity [29] was 100%. For the same compound, the residual activity [30] was 94%, the residual activity [31] was 100% and the residual activity [32] was 76%. The residual activity [33] was 100%, the residual activity [34] was 100% and the residual activity [35] was 100%. It also gave a residual activity [36] of 100%, a residual activity [37] of 100% and a residual activity [38] of 93%. It also gave an inhibition [39] of 30.8%.
`Cc1noc([C@H]2C[C@@H](c3ccc(C(F)(F)F)cc3)CN(C(=O)N3CCS(=O)(=O)C3)C2)n1` [BAY-448] was tested, and the IC50 [1] was > 10 µM (not active), the % Inhibition of Control Agonist Response (Mean n=2) [2] was -3% and the % of Control Agonist Response (Mean n=2) [2] was 0.4%. It also gave a residual activity [3] of 100%, a residual activity [4] of 84% and a residual activity [5] of 100%. The residual activity [6] was 100%, the residual activity [7] was 100% and the residual activity [8] was 96%. For the same compound, the residual activity [9] was 100%, the residual activity [10] was 100% and the residual activity [11] was 100%. For the same compound, the residual activity [12] was 100%, the residual activity [13] was 78% and the residual activity [14] was 100%. It also gave a residual activity [15] of 100%, a residual activity [16] of 100% and a residual activity [17] of 96%. It also gave a residual activity [18] of 62%, a residual activity [19] of 100% and a residual activity [20] of 100%. It also gave a residual activity [21] of 100%, a residual activity [22] of 100% and a residual activity [23] of 100%. For the same compound, the residual activity [24] was 100%, the residual activity [25] was 87% and the residual activity [26] was 66%. It also gave a residual activity [27] of 84%, a residual activity [28] of 100% and a residual activity [29] of 100%. It also gave a residual activity [30] of 100%, a residual activity [31] of 100% and a residual activity [32] of 98%. It also gave a residual activity [33] of 100%, a residual activity [34] of 100% and a residual activity [35] of 100%. It also gave a residual activity [36] of 100%, a residual activity [37] of 100% and a residual activity [38] of 100%. The inhibition [39] was 4.16%.

Source: ChEMBL document CHEMBL4507269, “Data for DCP probe BAY-386” (2021)
